Test results published in PMC10673511, “Design, Synthesis and Bioactivity Evaluation of Heterocycle-Containing Mono- and Bisphosphonic Acid Compounds” (Molecules, 2023).
Converted amounts (≈) assume the structure as drawn. Like-named read-outs stand apart in the source and are kept apart here.

Legend:
[1] = test system: Brassica napus L.; assay: Pre-emergence herbicidal inhibition assay, Petri dish test, BN; format: in vivo; conditions: for EC50: Brassica napus, 168 h; for Relative activity ratio (BN root) / Relative activity ratio (BN stalk): relative to FOS
Protocol: (§1) The pre-emergence activity of the compounds against monocot Echinochloa crus-galli (EC) and dicot Brassica napus L. (BN) was evaluated using the standard Petri dish test. The compounds were dissolved in DMF, emulsified with Tween-80 and diluted with water to form stock solutions, each of which was further diluted to a gradient of 100, 50, 25, 10 and 1 mg/L for test. The test solutions were added to Petri dishes lined with a filter paper, on which 10 seeds of EC and BN were placed. After cultured in an intelligent climate chamber with a humidity of 65% at 26 °C for 7 days, the corresponding EC50 values were calculated.

[2] = test system: Echinochloa crus-galli; assay: Pre-emergence herbicidal inhibition assay, Petri dish test, EC; format: in vivo; conditions: for EC50: Echinochloa crus-galli, 168 h; for Relative activity ratio (EC root) / Relative activity ratio (EC stalk): relative to FOS
Protocol: as §1

[3] = test system: Amaranthus retroflexus; assay: Post-emergence herbicidal inhibition assay, AR; format: in vivo; conditions: 300 g ai/ha spray, two weeks after treatment; for Loss of Weight (%) AR: fresh weighing
Protocol: (§2) The post-emergence activity of compounds against EC and Amaranthus retroflexus (AR) was determined at a dose of 300 g ai/ha. The model plants initially grow as seedlings, and a few days prior to treatment, five seedlings with similar growth conditions for the plant were transplanted into one pot containing nutrient soil. The test solutions were prepared by dissolving the compounds in water containing DMF and Tween-80 and sprayed when the plant grew to the 1~2 leaf stage. The herbicidal activity was evaluated via visual observation and fresh weighing after two weeks of treatment.

[4] = test system: Echinochloa crus-galli; assay: Post-emergence herbicidal inhibition assay, EC; format: in vivo; conditions: for Loss of Weight (%) EC / Visual Evaluation EC: 300 g ai/ha spray, two weeks after treatment; for Loss of Weight (%) EC: fresh weighing
Protocol: as §2

[5] = target: recombinant E. coli DXR (EcDXR) (Escherichia coli, UniProt P45568); assay: biochemical; conditions: for inhibition at 100 µM: read-out: InR (%) on DXR enzyme
[6] = test system: Arabidopsis thaliana; assay: Arabidopsis growth inhibition assay (24-well plates, green channel pixel value); conditions: for EC50 / pest or weed control at 100 µg/mL: Arabidopsis thaliana, 240 h; for EC50: read-out: EC50 against Arabidopsis growth; for pest or weed control at 100 µg/mL: read-out: InR (%) against Arabidopsis
[7] = test system: Arabidopsis thaliana; assay: DMAPP rescue on Arabidopsis; format: in vivo; conditions: FOS 40 mg/L; for rescue of developmental arrest and bleaching by DMAPP (change of pixel values): 13e 20 mg/L, t-test
Protocol: The DMAPP rescue on Arabidopsis was conducted using the afore-mentioned culture conditions. […] To one of the two species in each group, an additional 150 μg of DMAPP (Aladdin) was added. After 10 days of cultivation, the green channel pixel values of Arabidopsis in each well were measured. A two-tailed paired Student’s t-test was used to compare the two species within the same group, and p < 0.05 indicates a statistically significant difference.

[8] = test system: MtDXR; design: method as in PMID 21824775; conditions: cited from earlier work
[9] = root, 7 days, read-out: EC50 BN Root
[10] = stalk, 7 days, read-out: EC50 BN Stalk
[11] = root, 7 days, read-out: EC50 EC Root
[12] = stalk, 7 days, read-out: EC50 EC Stalk

Chain of recombinant E. coli DXR (EcDXR) (P45568 whole entry): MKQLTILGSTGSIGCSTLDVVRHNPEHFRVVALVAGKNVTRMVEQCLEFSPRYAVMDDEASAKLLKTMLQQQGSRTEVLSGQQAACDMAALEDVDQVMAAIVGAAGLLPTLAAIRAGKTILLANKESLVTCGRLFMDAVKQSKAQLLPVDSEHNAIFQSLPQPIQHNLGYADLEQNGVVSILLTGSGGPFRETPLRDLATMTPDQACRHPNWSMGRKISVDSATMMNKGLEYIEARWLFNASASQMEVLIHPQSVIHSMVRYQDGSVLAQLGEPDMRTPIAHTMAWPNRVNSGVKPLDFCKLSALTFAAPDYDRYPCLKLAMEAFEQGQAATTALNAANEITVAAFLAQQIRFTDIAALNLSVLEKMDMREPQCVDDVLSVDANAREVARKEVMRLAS

Row | Structure (SMILES) | Relative activity ratio (BN root) [1] | Relative activity ratio (BN stalk) [1] | Relative activity ratio (EC root) [2] | Relative activity ratio (EC stalk) [2] | Loss of Weight (%) AR [3] | Visual Evaluation AR [3] | Loss of Weight (%) EC [4] | Visual Evaluation EC [4] | inhibition at 100 µM [5] | EC50 [6] | pest or weed control at 100 µg/mL [6] | EC50 [1, 9] | EC50 [1, 10] | EC50 [2, 11] | EC50 [2, 12] | rescue of developmental arrest and bleaching by DMAPP (change of pixel values) ([7]; DMAPP 150 mg/L) | also measured
1 | Cc1onc(O)c1CCP(=O)(O)O [Compound 6a] | 2.0 fold | 3.1 fold | 1.7 fold | 2.0 fold | 35.6% | + (“+”: ≥20%) | 30.8% | + (“+”: ≥20%) | 15.8% | 28.6 ± 3.9 µg/mL (≈ 138 µM) | 90.4% |  |  |  |  |  | EC50 ([1]; read-out: EC50 BN Root): 17.3 µg/mL (≈ 83.5 µM); EC50 ([1]; read-out: EC50 BN Stalk): 10.5 µg/mL (≈ 50.7 µM); EC50 ([2]; read-out: EC50 EC Root): 24 µg/mL (≈ 116 µM); EC50 ([2]; read-out: EC50 EC Stalk): 18.9 µg/mL (≈ 91.3 µM)
2 | CC(C)c1onc(O)c1CC(P(=O)(O)O)P(=O)(O)O [Compound 13d] | 1.4 fold | 3.0 fold | 1.5 fold | 2.8 fold | 45.7% | ++ (“++”: ≥40%) | 34.9% | + (“+”: ≥20%) | 14% | 23.1 ± 1.9 µg/mL (≈ 73.3 µM) | 93.2% | 25.2 µg/mL (≈ 80 µM) | 11 µg/mL (≈ 34.9 µM) | 27.2 µg/mL (≈ 86.3 µM) | 13.5 µg/mL (≈ 42.8 µM) |  | 
3 | CC1(C)CON(CCCC(P(=O)(O)O)P(=O)(O)O)C1=O [Compound 20] | 1.0 fold | 4.0 fold | 1.0 fold | 1.5 fold | 23.6% | + (“+”: ≥20%) | 22.9% | + (“+”: ≥20%) | 29.5% | > 100 µg/mL | 47.9% | 34.6 µg/mL (≈ 104 µM) | 8.2 µg/mL (≈ 24.8 µM) | 40 µg/mL (≈ 121 µM) | 25.2 µg/mL (≈ 76.1 µM) |  | melting point: > 250 °C
4 | Cc1onc(O)c1CC(P(=O)(O)O)P(=O)(O)O [Compound 13a] | 1.3 fold | 3.9 fold | 1.5 fold | 3.8 fold | 52.3% | ++ (“++”: ≥40%) | 35.8% | + (“+”: ≥20%) | 60.2% | 21.6 ± 3.8 µg/mL (≈ 75.2 µM) | 100% | 26.9 µg/mL (≈ 93.7 µM) | 8.5 µg/mL (≈ 29.6 µM) | 27.1 µg/mL (≈ 94.4 µM) | 10.2 µg/mL (≈ 35.5 µM) |  | IC50 [5]: 77.9 µM
5 | O=CN(O)CCCP(=O)(O)O [FOS, Fosmidomycin, reference compound] |  |  |  |  | 31.5% | + (“+”: ≥20%) | 27.4% | + (“+”: ≥20%) | 98.7% | 27.5 ± 3.1 µg/mL (≈ 150 µM) | 86.8% | 34.7 µg/mL (≈ 190 µM) | 32.9 µg/mL (≈ 180 µM) | 40.2 µg/mL (≈ 220 µM) | 38.4 µg/mL (≈ 210 µM) | rescued | green channel pixel value of Arabidopsis images, without DMAPP ([7]; 10 days): 32,789; green channel pixel value of Arabidopsis images, with DMAPP ([7]; DMAPP 150 mg/L, 10 days): 54,164; IC50 [8]: 0.08 µM
6 | O=P(O)(O)C(Cc1c(O)noc1C(F)(F)F)P(=O)(O)O [Compound 13e] | 3.2 fold | 14.3 fold | 5.4 fold | 9.4 fold | 70.3% | +++ (“+++”: ≥60%) | 53.5% | ++ (“++”: ≥40%) | 54.9% | 7.8 ± 1.2 µg/mL (≈ 22.9 µM) | 100% | 10.7 µg/mL (≈ 31.4 µM) | 2.3 µg/mL (≈ 6.74 µM) | 7.4 µg/mL (≈ 21.7 µM) | 4.1 µg/mL (≈ 12 µM) | did not show a significant increase | fold more active than FOS, inhibition rate on EC via fresh weighing ([4]; post-emergence, 300 g ai/ha): 1.0 fold; fold inhibitory activity on Arabidopsis relative to FOS ([6]; from EC50 values): 3.7 fold
